Measurements as given in patent US7511040B2, “Imidazopyrazines as protein kinase inhibitors” (Schering Corporation, priority 2006, dated 2009).

What was measured:
[1] = target: T1, recombinant Aurora A (Homo sapiens, UniProt O14965); assay: Aurora A enzyme assay (IMAP fluorescence polarization, Tamra-PKAtide substrate); assay type: biochemical; conditions: 8 nM enzyme, 25 μM ATP, 100 nM Tamra-PKAtide, 2 hours at room temperature
T1 construct: purchased Upstate 14-511
T1 sequence (O14965 1-403): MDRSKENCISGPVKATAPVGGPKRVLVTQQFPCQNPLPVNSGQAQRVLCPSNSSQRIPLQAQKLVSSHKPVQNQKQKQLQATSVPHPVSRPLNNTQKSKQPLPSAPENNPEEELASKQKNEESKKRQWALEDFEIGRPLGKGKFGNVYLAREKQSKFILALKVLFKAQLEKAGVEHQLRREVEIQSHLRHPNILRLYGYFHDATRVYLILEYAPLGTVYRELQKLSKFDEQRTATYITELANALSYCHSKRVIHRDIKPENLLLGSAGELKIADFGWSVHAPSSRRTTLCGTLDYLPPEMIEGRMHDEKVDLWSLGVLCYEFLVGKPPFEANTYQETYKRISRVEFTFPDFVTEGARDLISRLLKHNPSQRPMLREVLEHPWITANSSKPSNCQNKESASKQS
Description: (§1) An in vitro assay was developed that utilizes recombinant Aurora A or Aurora B as an enzyme source and a peptide based on PKA as the substrate.
Aurora A kinase assays were performed in low protein binding 384-well plates (Corning Inc). All reagents were thawed on ice. Compounds were diluted in 100% DMSO to desirable concentrations. […] For each reaction, 14 μl containing TAMRA-PKAtide, ATP, DTT and kinase buffer were combined with 1 μl diluted compound. The kinase reaction was started by the addition of 5 μl diluted enzyme. The reaction was allowed to run for 2 hours at room temperature. […] After an additional 2 hours, fluorescent polarization was measured using an Analyst AD (Molecular devices).
(§2) Dose-response curves were plotted from inhibition data generated each in duplicate, from 8 point serial dilutions of inhibitory compounds. Concentration of compound was plotted against kinase activity, calculated by degree of fluorescent polarization. To generate IC50 values, the dose-response curves were then fitted to a standard sigmoidal curve and IC50 values were derived by nonlinear regression analysis.

[2] = target: T2, recombinant Aurora B (Homo sapiens, UniProt Q96GD4); assay: Aurora B enzyme assay (IMAP fluorescence polarization, Tamra-PKAtide substrate); assay type: biochemical; conditions: 26 nM enzyme, 50 μM ATP, 100 nM Tamra-PKAtide, 2 hours at room temperature
T2 construct: purchased Invitrogen pv3970
T2 sequence (Q96GD4 whole entry): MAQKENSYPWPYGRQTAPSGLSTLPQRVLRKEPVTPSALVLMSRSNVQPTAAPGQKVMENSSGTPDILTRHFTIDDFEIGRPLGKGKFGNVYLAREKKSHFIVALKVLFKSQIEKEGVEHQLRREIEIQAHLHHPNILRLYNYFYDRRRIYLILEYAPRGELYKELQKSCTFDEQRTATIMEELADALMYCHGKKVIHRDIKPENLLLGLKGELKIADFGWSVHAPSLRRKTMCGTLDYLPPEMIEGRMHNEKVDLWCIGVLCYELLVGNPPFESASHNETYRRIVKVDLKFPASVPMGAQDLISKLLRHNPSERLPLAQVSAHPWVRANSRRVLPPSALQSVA
Description: as §1
Aurora A kinase assays were performed in low protein binding 384-well plates (Corning Inc). All reagents were thawed on ice. Compounds were diluted in 100% DMSO to desirable concentrations. Each reaction consisted of 26 nM enzyme (Aurora B, Invitrogen cat#pv3970), 100 nM Tamra-PKAtide (Molecular Devices, 5TAMRA-GRTGRRNSICOOH), 50 μM ATP (Roche), 1 mM DTT (Pierce), and kinase buffer (10 mM Tris, 10 mM MgCl2, 0.01% Tween 20). For each reaction, 14 μl containing TAMRA-PKAtide, ATP, DTT and kinase buffer were combined with 1 μl diluted compound. The kinase reaction was started by the addition of 5 μl diluted enzyme. The reaction was allowed to run for 2 hours at room temperature. The reaction was stopped by adding 60 μl IMAP beads (1:400 beads in progressive (94.7% buffer A: 5.3% buffer B) 1× buffer, 24 mM NaCl). After an additional 2 hours, fluorescent polarization was measured using an Analyst AD (Molecular devices).
as §2

SMILES	IC50 [1]	IC50 [2]
COc1cccc(Sc2cn3c(-c4cn[nH]c4)cnc3c(Nc3cc(C)ns3)n2)c1 [Example 4-11]	50 nM	114 nM
CSc1cn2c(-c3cccc(C)c3)cnc2c(Nc2cc(C)ns2)n1 [Example 4-32]	14200 nM	> 3000 nM
Cc1cc(Nc2nc(SCC(C)O)cn3c(-c4cn[nH]c4)cnc23)sn1 (centres unmarked) [Example 4-18]	–	9 nM
CSc1cn2c(-c3cn[nH]c3)cnc2c(Nc2cc(C)ns2)n1 [Example 4-3]	–	11 nM
Cc1cc(Nc2nc(Sc3ccncc3)cn3c(-c4cn[nH]c4)cnc23)sn1 [Example 4-21]	–	285 nM
CC(=O)Nc1ccc(Sc2cn3c(-c4cn[nH]c4)cnc3c(Nc3cc(C)ns3)n2)cc1 [Example 4-14]	9 nM	4 nM
Cc1cc(Nc2nc(Sc3nc4ccccc4s3)cn3c(-c4cn[nH]c4)cnc23)sn1 [Example 4-1]	661 nM	–
Cc1cc(Nc2nc(Sc3ncc[nH]3)cn3c(-c4cn[nH]c4)cnc23)sn1 [Example 4-23]	–	66 nM
CSc1cn2c(-c3cc(C4CC4)[nH]n3)cnc2c(Nc2cc(C)ns2)n1 [Example 4-28]	16500 nM	> 3000 nM
Cc1cc(Nc2nc(Sc3ccccn3)cn3c(-c4cn[nH]c4)cnc23)sn1 [Example 4-5]	–	432 nM
COc1ccc(Sc2cn3c(-c4cn[nH]c4)cnc3c(Nc3cc(C)ns3)n2)cc1 [Example 4-12]	–	24 nM
CSc1cn2c(-c3cc[nH]n3)cnc2c(Nc2cc(C)ns2)n1 [Example 4-27]	697 nM	223 nM
CNC(=O)CSc1cn2c(-c3cn[nH]c3)cnc2c(Nc2cc(C)ns2)n1 [Example 4-6]	–	15 nM
Cc1cc(Nc2nc(Sc3ccc(NC(=O)C4CC4)cc3)cn3c(-c4cn[nH]c4)cnc23)sn1 [Example 4-19]	25 nM	67 nM
Cc1cc(Nc2nc(SC3CCNC3)cn3c(-c4cnn(C)c4)cnc23)sn1 (centres unmarked) [Example 4-26]	> 5000 nM	> 3000 nM
Cc1cc(Nc2nc(Sc3nccs3)cn3c(-c4cn[nH]c4)cnc23)sn1 [Example 4-22]	–	7 nM
COc1ccccc1Sc1cn2c(-c3cn[nH]c3)cnc2c(Nc2cc(C)ns2)n1 [Example 4-10]	74 nM	24 nM
Cc1cc(Nc2nc(Sc3ncn[nH]3)cn3c(-c4cn[nH]c4)cnc23)sn1 [Example 4-24]	–	35 nM
Cc1cc(Nc2nc(Sc3ccccc3Cl)cn3c(-c4cn[nH]c4)cnc23)sn1 [Example 4-4]	600 nM	442 nM
Cc1cc(Nc2nc(SC3CC3)cn3c(-c4cn[nH]c4)cnc23)sn1 [Example 4-25]	–	< 1000 nM
Cc1cc(Nc2nc(Sc3ccc(Cl)cc3)cn3c(-c4cn[nH]c4)cnc23)sn1 [Example 4-13]	–	612 nM
CNc1ncc(-c2cnc3c(Nc4cc(C)ns4)nc(SC)cn23)s1 [Example 4-31]	7540 nM	710 nM
Cc1cc(Nc2nc(Sc3cccc(Cl)c3)cn3c(-c4cn[nH]c4)cnc23)sn1 [Example 4-20]	–	10 nM
CSc1cn2c(-c3ccco3)cnc2c(Nc2cc(C)ns2)n1 [Example 4-30]	2530 nM	1320 nM
